Laboratory results reported in US12728111B2, “Electrophilic compounds and electrophilic prodrugs for treating aneurysm” (University of Pittsburgh—Of the Commonwealth System of …, priority 2020, dated 2026).

Target: T1, EPRAP/p105 interaction (Homo sapiens, UniProt P19838+Q9BSK4)
T1 construct: Addgene (p105 plasmid) #HG21487-NY; plasmid #23288
T1 sequence (Q9BSK4 1-669): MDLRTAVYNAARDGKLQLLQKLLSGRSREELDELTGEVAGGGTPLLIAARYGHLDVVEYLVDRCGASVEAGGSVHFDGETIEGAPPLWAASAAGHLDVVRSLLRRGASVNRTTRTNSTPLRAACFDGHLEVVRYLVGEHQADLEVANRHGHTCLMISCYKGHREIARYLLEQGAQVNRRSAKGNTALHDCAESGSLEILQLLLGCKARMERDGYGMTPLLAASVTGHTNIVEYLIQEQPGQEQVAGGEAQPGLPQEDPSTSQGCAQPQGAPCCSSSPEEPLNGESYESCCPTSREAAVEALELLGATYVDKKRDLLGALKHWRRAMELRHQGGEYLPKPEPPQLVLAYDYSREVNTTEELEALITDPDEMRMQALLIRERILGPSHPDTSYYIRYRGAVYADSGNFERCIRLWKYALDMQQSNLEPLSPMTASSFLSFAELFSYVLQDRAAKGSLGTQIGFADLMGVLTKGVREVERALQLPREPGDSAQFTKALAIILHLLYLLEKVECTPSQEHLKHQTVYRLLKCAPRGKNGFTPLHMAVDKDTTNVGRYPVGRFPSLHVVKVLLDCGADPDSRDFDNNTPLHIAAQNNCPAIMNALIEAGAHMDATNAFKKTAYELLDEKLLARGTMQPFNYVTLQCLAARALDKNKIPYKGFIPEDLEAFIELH
T1 sequence (P19838 1-968): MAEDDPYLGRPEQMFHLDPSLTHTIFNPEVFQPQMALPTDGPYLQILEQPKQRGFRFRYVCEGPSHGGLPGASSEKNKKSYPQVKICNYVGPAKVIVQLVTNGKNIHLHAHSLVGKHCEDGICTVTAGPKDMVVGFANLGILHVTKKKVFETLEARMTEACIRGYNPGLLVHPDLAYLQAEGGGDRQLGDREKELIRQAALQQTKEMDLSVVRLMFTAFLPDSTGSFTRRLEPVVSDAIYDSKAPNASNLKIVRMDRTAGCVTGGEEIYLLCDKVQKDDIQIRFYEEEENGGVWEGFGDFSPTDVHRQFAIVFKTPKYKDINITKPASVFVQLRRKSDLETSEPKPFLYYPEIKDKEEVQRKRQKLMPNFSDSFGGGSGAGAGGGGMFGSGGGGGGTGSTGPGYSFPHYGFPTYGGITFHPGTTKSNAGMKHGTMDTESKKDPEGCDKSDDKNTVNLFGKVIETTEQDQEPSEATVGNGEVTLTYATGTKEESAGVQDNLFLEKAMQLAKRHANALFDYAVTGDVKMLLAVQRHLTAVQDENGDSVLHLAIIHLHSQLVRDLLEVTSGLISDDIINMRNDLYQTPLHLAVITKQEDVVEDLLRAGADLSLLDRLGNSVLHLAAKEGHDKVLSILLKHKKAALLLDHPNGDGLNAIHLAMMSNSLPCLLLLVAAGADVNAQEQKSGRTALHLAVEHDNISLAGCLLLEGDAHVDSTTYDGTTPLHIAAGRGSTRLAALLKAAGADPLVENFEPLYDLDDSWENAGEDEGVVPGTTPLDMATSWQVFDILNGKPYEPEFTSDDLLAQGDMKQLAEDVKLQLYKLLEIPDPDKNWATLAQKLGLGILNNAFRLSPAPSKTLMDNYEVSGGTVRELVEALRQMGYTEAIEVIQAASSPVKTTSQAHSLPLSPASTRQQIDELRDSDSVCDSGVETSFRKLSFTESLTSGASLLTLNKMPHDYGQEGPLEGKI
Assay: Co-IP of HA-tagged EPRAP (FEM1A) and p105
Assay type: cell-based
Conditions: up to 5 μM; cells overexpressing HA-tagged EPRAP (FEM1A) and p105
From the text: Nuclear/cytoplasm protein extraction, co-Immunoprecipitation and immunoblotting NE-PER™ Nuclear and Cytoplasmic Extraction Reagents (#78835, ThermoFisher) were used for nuclear and cytoplasmic protein extraction. For Co-IP, cells were lysed using Cell Lysis Buffer (#9803, CST) supplemented with PMSF (#8553, CST), immunoprecipitated using Protein G Magnetic Beads (#7024, CST) and antibodies against HA (#AE008, ABclonal) or p50/p105(#13586, CST) following the manufacture's protocol. For immunoblot, protein extracts were resolved in SDS-PAGE gels and transferred to nitrocellulose membranes. Membranes were blocked by 5% BSA and incubated with the primary antibody at 4° C. overnight followed by incubation with fluorescence conjugated secondary antibody for 1 h at room temperature. Band intensity was collected with the Odyssey® CLx Imaging System and quantified using Image Studio™ Lite.

CCCCCCCCC(=CCCCCCCCC(=O)O)[N+](=O)[O-] [NO2—OA, 10-nitro-octadec-9-enoic acid]
effect on the EPRAP/p105 interaction: no significant effect
